Laboratory results published in the NIST ThermoML archive (doi:10.1007/s10765-006-0051-4).

Experiment: xn = mol fraction of the nth substance listed
Conditions: Gas, Oscillating disk viscometry

FC(F)C(F)(F)F [pentafluoroethane] + CCC
Conditions	viscosity [mPa·s]
298.15 K, 101.2 kPa, x1 = 0.7503	0.01219
298.15 K, 102 kPa, x1 = 0.5011	0.01122
298.15 K, 197.9 kPa, x1 = 0.7503	0.01223
298.15 K, 198.2 kPa, x1 = 0.5011	0.01121
298.15 K, 294.6 kPa, x1 = 0.7503	0.01221
298.15 K, 302.6 kPa, x1 = 0.5011	0.01121
298.15 K, 391.5 kPa, x1 = 0.7503	0.01222
298.15 K, 396.1 kPa, x1 = 0.5011	0.01123
298.15 K, 492.3 kPa, x1 = 0.7503	0.01223
298.15 K, 499.4 kPa, x1 = 0.5011	0.01123
298.15 K, 589.1 kPa, x1 = 0.7503	0.01225
298.15 K, 591.1 kPa, x1 = 0.5011	0.01124
298.15 K, 687.4 kPa, x1 = 0.5011	0.01125
298.15 K, 689 kPa, x1 = 0.7503	0.01229
298.15 K, 789 kPa, x1 = 0.5011	0.01128
298.15 K, 803.5 kPa, x1 = 0.7503	0.01229
298.15 K, 913.4 kPa, x1 = 0.7503	0.01235
298.15 K, 928.2 kPa, x1 = 0.5011	0.01131
298.15 K, 1012.4 kPa, x1 = 0.7503	0.01248
298.15 K, 1025.1 kPa, x1 = 0.5011	0.01138
298.15 K, 1231.3 kPa, x1 = 0.7503	0.01257
323.15 K, 101.8 kPa, x1 = 0.5011	0.01214
323.15 K, 102.2 kPa, x1 = 0.7503	0.01319
323.15 K, 199 kPa, x1 = 0.7503	0.01317
323.15 K, 213.9 kPa, x1 = 0.5011	0.01213
323.15 K, 294.9 kPa, x1 = 0.7503	0.0132
323.15 K, 391.1 kPa, x1 = 0.7503	0.01321
323.15 K, 395.8 kPa, x1 = 0.5011	0.01215
323.15 K, 519.4 kPa, x1 = 0.7503	0.01322
323.15 K, 592.8 kPa, x1 = 0.5011	0.01219
323.15 K, 636.3 kPa, x1 = 0.7503	0.01325
323.15 K, 766.4 kPa, x1 = 0.7503	0.01326
323.15 K, 788.9 kPa, x1 = 0.5011	0.01225
323.15 K, 883.2 kPa, x1 = 0.7503	0.01334
323.15 K, 983.8 kPa, x1 = 0.5011	0.01228
323.15 K, 1005.1 kPa, x1 = 0.7503	0.01339
323.15 K, 1125.1 kPa, x1 = 0.7503	0.01346
323.15 K, 1181.8 kPa, x1 = 0.5011	0.01241
323.15 K, 1249.7 kPa, x1 = 0.7503	0.01351
323.15 K, 1371.2 kPa, x1 = 0.7503	0.01361
323.15 K, 1374.9 kPa, x1 = 0.5011	0.01255
323.15 K, 1486.3 kPa, x1 = 0.7503	0.01367
323.15 K, 1618.9 kPa, x1 = 0.7503	0.01379
323.15 K, 1667.7 kPa, x1 = 0.5011	0.01272
323.15 K, 1736.1 kPa, x1 = 0.7503	0.01387
323.15 K, 1862.6 kPa, x1 = 0.5011	0.01289
323.15 K, 1864.4 kPa, x1 = 0.7503	0.01404
323.15 K, 1985.7 kPa, x1 = 0.5011	0.013
323.15 K, 1992.1 kPa, x1 = 0.7503	0.0142
323.15 K, 2071.4 kPa, x1 = 0.5011	0.01314
323.15 K, 2101.6 kPa, x1 = 0.7503	0.01435
323.15 K, 2211.6 kPa, x1 = 0.7503	0.01452
323.15 K, 2349.2 kPa, x1 = 0.7503	0.01482
348.15 K, 101.1 kPa, x1 = 0.5011	0.01295
348.15 K, 101.4 kPa, x1 = 0.7503	0.01409
348.15 K, 198.4 kPa, x1 = 0.5011	0.01299
348.15 K, 199.7 kPa, x1 = 0.7503	0.01407
348.15 K, 305.5 kPa, x1 = 0.5011	0.01297
348.15 K, 388.2 kPa, x1 = 0.7503	0.01416
348.15 K, 401.6 kPa, x1 = 0.5011	0.01296
348.15 K, 588.6 kPa, x1 = 0.7503	0.01424
348.15 K, 592.5 kPa, x1 = 0.5011	0.01307
348.15 K, 750.8 kPa, x1 = 0.7503	0.01427
348.15 K, 784.8 kPa, x1 = 0.5011	0.01316
348.15 K, 978.4 kPa, x1 = 0.7503	0.01432
348.15 K, 986 kPa, x1 = 0.5011	0.01318
348.15 K, 1173.8 kPa, x1 = 0.7503	0.01443
348.15 K, 1178.4 kPa, x1 = 0.5011	0.01326
348.15 K, 1374.6 kPa, x1 = 0.5011	0.01335
348.15 K, 1374.7 kPa, x1 = 0.7503	0.01455
348.15 K, 1565.7 kPa, x1 = 0.7503	0.01468
348.15 K, 1571.2 kPa, x1 = 0.5011	0.0135
348.15 K, 1770.2 kPa, x1 = 0.7503	0.01482
348.15 K, 1772.3 kPa, x1 = 0.5011	0.01362
348.15 K, 1960.9 kPa, x1 = 0.5011	0.01374
348.15 K, 1963.9 kPa, x1 = 0.7503	0.01499
348.15 K, 2130.4 kPa, x1 = 0.7503	0.01511
348.15 K, 2139.9 kPa, x1 = 0.5011	0.01387
348.15 K, 2297.9 kPa, x1 = 0.5011	0.01404
348.15 K, 2335.5 kPa, x1 = 0.7503	0.01538
348.15 K, 2492.4 kPa, x1 = 0.7503	0.01555
348.15 K, 2501 kPa, x1 = 0.5011	0.0143
348.15 K, 2660.6 kPa, x1 = 0.7503	0.01583
348.15 K, 2695.6 kPa, x1 = 0.5011	0.01451
348.15 K, 2804.7 kPa, x1 = 0.7503	0.01604
348.15 K, 2928.8 kPa, x1 = 0.7503	0.01629
348.15 K, 2932.5 kPa, x1 = 0.5011	0.01494
348.15 K, 3079.4 kPa, x1 = 0.7503	0.01666
348.15 K, 3111.7 kPa, x1 = 0.5011	0.01524
348.15 K, 3230.6 kPa, x1 = 0.7503	0.01697
348.15 K, 3383.2 kPa, x1 = 0.7503	0.01739
373.15 K, 101 kPa, x1 = 0.7503	0.01505
373.15 K, 101.5 kPa, x1 = 0.5011	0.01376
373.15 K, 220 kPa, x1 = 0.7503	0.01506
373.15 K, 225.5 kPa, x1 = 0.5011	0.01381
373.15 K, 389.7 kPa, x1 = 0.7503	0.0151
373.15 K, 397.7 kPa, x1 = 0.5011	0.01383
373.15 K, 585.6 kPa, x1 = 0.5011	0.01386
373.15 K, 637.7 kPa, x1 = 0.7503	0.01515
373.15 K, 781.4 kPa, x1 = 0.5011	0.01393
373.15 K, 877.8 kPa, x1 = 0.7503	0.01525
373.15 K, 980.5 kPa, x1 = 0.5011	0.01401
373.15 K, 1141.8 kPa, x1 = 0.7503	0.01537
373.15 K, 1174.2 kPa, x1 = 0.5011	0.01407
373.15 K, 1370.5 kPa, x1 = 0.5011	0.01413
373.15 K, 1477.4 kPa, x1 = 0.7503	0.01552
373.15 K, 1560.4 kPa, x1 = 0.5011	0.01422
373.15 K, 1717 kPa, x1 = 0.7503	0.01566
373.15 K, 1753.9 kPa, x1 = 0.5011	0.01434
373.15 K, 1949.4 kPa, x1 = 0.5011	0.01447
373.15 K, 1961.1 kPa, x1 = 0.7503	0.01583
373.15 K, 2125.3 kPa, x1 = 0.5011	0.01458
373.15 K, 2185.2 kPa, x1 = 0.7503	0.01605
373.15 K, 2318.9 kPa, x1 = 0.5011	0.01469
373.15 K, 2415.9 kPa, x1 = 0.7503	0.01623
373.15 K, 2508.1 kPa, x1 = 0.5011	0.01487
373.15 K, 2631.2 kPa, x1 = 0.7503	0.01641
373.15 K, 2708.4 kPa, x1 = 0.5011	0.01508
373.15 K, 2950.3 kPa, x1 = 0.7503	0.01679
373.15 K, 2961.4 kPa, x1 = 0.5011	0.01536
373.15 K, 3209.9 kPa, x1 = 0.7503	0.01714
373.15 K, 3217 kPa, x1 = 0.5011	0.01568
373.15 K, 3421.2 kPa, x1 = 0.7503	0.01749
